{
  "source": "patent US20250302721A1",
  "about": "“ANTI-AGING EYE CREAM” (L'OREAL, priority 2024, published 2025)",
  "key": {"[1]": {"system": "Full-thickness reconstructed skin (T-Skin, Episkin)", "assay": "sGAG release in full-thickness reconstructed skin (sulfated glycosaminoglycan assay kit)", "assay_type": "cell-based", "details": "PX 0.02% and 0.06% in medium, Day 11 through Day 15, medium supernatant, n=3, FIG. 7", "method": "Full-thickness reconstructed skin (T-Skin, Episkin) was treated systemically with hydroxypropyl tetrahydropyrantriol (PX, 0.02% and 0.06%) based on the T-skin evaluation test. Tissues are received on medium at day 11 and stored at 37C (95% humidity and 5% CO2) until the end of treatments at […]. The tissue receive medium and medium+hydroxypropyl tetrahydropyrantriol starting from Day 11 through Day 15 (n=3). At Day 15, the medium supernatant was collected to be measured with the sulfated glycosaminoglycan assay kit (ab289846, Abcam). For analysis, sGAG release of the supernatant was quantified based on vendor protocol."}, "[2]": {"system": "Normal adult human epidermal keratinocytes (NHEK-Ad)", "assay": "keratinocyte proliferation (Ki67 vs DAPI staining)", "assay_type": "cell-based", "details": "48 hours, FIG. 9 and FIG. 10", "method": "Normal adult human epidermal keratinocytes (NHEK-Ad, Cat #00192627, Lonza, Switzerland) were maintained in basal growth medium (KGM Gold keratinocyte Growth Medium Bulletkit, Cat #00192060) until the initiation of the proliferation experiment. The keratinocytes were seeded at a concentration of 1×10^3/24 well and allowed to equilibrate overnight (n=3/group). The cell culture medium was switched with fresh growth containing different concentrations of hydroxypropyl tetrahydropyrantriol (0.005%, 0.017%, and 0.05%), NAM (0.0012%, 0.004%, and 0.012%) alone and combination of hydroxypropyl tetrahydropyrantriol+niacinamide (PX/NAM). The cells were incubated for 48 hours and the keratinocytes were stained against KI67 primary antibody (Anti-Ki67 antibody, Cat #ab15580, Abcam) and goat anti-rabbit IgG Alexa Fluor®488 secondary antibody (Cat #150077, Abcam). The Ki67 and DAPI fluorescent signals were captured using a fluorescent microscope (DMi8, Leica). The Ki67 expression was quantified against total cell nucleus staining (DAPI staining solution, ab228549, Abcam) in order to calculate the number of proliferating cells vs. total number of cells."}},
  "data": [
    {"smiles": "CC(O)C[C@@H]1OC[C@@H](O)[C@H](O)[C@H]1O", "note": "(stereo partly drawn) [hydroxypropyl tetrahydropyrantriol, C-beta-D-xylopyranoside-2-hydroxypropane]", "values": [
      {"measurement": "sGAG release", "setting": "[1]", "value": "increase sGAG release"}
    ]},
    {"smiles": "NC(=O)c1cccnc1", "note": "[niacinamide]", "values": [
      {"measurement": "skin cell proliferation (Ki67 vs total nuclei)", "setting": "[2]; 0.004% niacinamide", "value": "significantly increase proliferation"},
      {"measurement": "skin cell proliferation (Ki67 vs total nuclei)", "setting": "[2]; 0.012% niacinamide", "value": "significantly increase proliferation"}
    ]}
  ]
}
